Test: Chemical stability on storage: concentration / degradation of compound of Formula I in the composition
Format: physicochemical
Conditions: after 8 weeks of storage at 40° C.
Excerpt: As used herein, the term “stable” when used in connection with chemical stability, e.g, chemically stable, means that the composition meets the chemical stability standards set forth by the Food and Agriculture Organization of the United Nations (FAO) in the Manual on Development and Use of FAO and WHO Specification for Pesticides (First Edition—Third Revision) (the “FAO/WHO Manual”) (available at http://www.fao.gov/agriculture/crops/thematic-sitemap/theme/pests/jmps/manual/en/), the entire content of which is hereby incorporate by reference into the subject application. […] The amount of degradation permitted before the degradation is considered to be significant depends on the concentration of the active ingredients in the composition.
The physical and chemical stability of composition of Example were tested under various conditions including CIPAC conditions.

degradation of the compound of Formula I (with Attagel 50 (0.5% by weight) and Bentone SD-1 (0.5% by weight)): 4%
degradation of the compound of Formula I (without Attagel 50 and Bentone SD-1): 7-8%
SMILES: Cc1ccc(S(=O)(=O)n2cc(F)c(=N)n(C)c2=O)cc1 [compound of Formula I, 5-fluoro-4-imino-3-methyl-1-tosyl-3,4-dihydropyrimidin-2(1H)-one]
